Assay [1] concerns Fusarium. The assay is described as follows: Effect on Fusarium (Mycelie Growth) in vitro study. Format: cell-based, Fusarium culmorum. The protocol:
(§1) Sensitivity towards Tebuconazole (control) and Biocides A and B (see tables 1A and 1B) respectively, was tested in petri dishes using spore suspension containing 2.5×10^4 spores/ml of each fungal isolate or a mycelium block. 5-6 different concentrations of Biocide A and B respectively, as outlined in table 3 below were used in the tests.
(§2) For the tests, the two biocides A and B where individually mixed with potato dextrose broth to achieve the appropriate test concentration. Percent inhibition was assessed after a few days depending on the fungi and its growth rates measured in relation to control.

Assay [2] concerns Fusarium. The assay is described as follows: Effect on Fusarium (Spore Growth) in vitro study. Format: cell-based, Fusarium culmorum. The protocol:
as §1, §2

The test system of assay [3] is Septoria tritici.
For assay [4], the system named is Puccinia striiformis f. sp. tritici (Pst). The assay is described as follows: Indoor greenhouse study, stripe (yellow) rust, preventive and curative. In kind it is in vivo. As to conditions: preventive spray one day prior to infection, curative three days later; 30, 100, 300, 1000 ppm; evaluated 16 days later. The text has this:
In this study we used tebuconazole as fungicidal reference (control) and the above outlined biocide A and B compositions for testing the effect on Stripe (yellow) rust, caused by Puccinia striiformis f. sp. tritici (Pst). The applied method also tests preventive and curative effects of the elected fungicide compositions.
The scale used is 0=no attack;
1=necrose with a few pustules; 5=half of the infected leafs are attacked by pustules; 10=100% attack of the leafs.
The leafs were sprayed preventive one day prior to infection with Stripe (yellow) rust. Three days later the plants were sprayed for curative purposes.
16 days later the plant were evaluated.
The following doses were used for both preventive and curative experiments: 30, 100, 300, 1000 ppm

Read-outs that look alike come from different tables or passages of the source.

Turning to `CC(C)(C)C(O)(CCc1ccc(Cl)cc1)Cn1cncn1` (stereo not shown) [Tebuconazole], the Growth in assay [1] (0.1 ppm) came to 10%; in assay [1] (1 ppm), 10%; in assay [1] (3.3 ppm), 0%; in assay [1] (10 ppm) it was 0%; in assay [1] (33 ppm), 0%; in assay [1] (100 ppm) it was 0%. In addition, the Growth is 25% in assay [2] (0.1 ppm); 0% in assay [2] (1 ppm); 0% in assay [2] (3.3 ppm); 0% in assay [2] (10 ppm); 0% in assay [2] (33 ppm); 0% in assay [2] (100 ppm). Also, the Growth in assay [3] (0.1 ppm) worked out at 10%; in assay [3] (1 ppm) it was 5%; in assay [3] (3.3 ppm), 0%; in assay [3] (10 ppm) it was 0%; in assay [3] (33 ppm), 0%; in assay [3] (100 ppm), 0%. Moreover, the “effect on Stripe (yellow) rust attack” value in assay [4] is “able to eliminate the fungi attack both in a preventive and a curative manner”.

Source of the values: US20180249713A1, “Composition for Protection of Plants, Fruit and Vegetables” (priority 2015, published 2018).
